# Laboratory results as given in ChEMBL document CHEMBL1201862, “PubChem BioAssay data set” (2004).
#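 A five-concentration, 48-hour dose response in 96-well plates underlies each endpoint, interpolated linearly between surrounding concentrations. GI50: concentration for 50% inhibition of growth.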 Activity calls are given as the source filed them. No stated cut-off is given here; in the data, active = GI50 up to about 1.1 µM and inactive = higher.
# Legend:
# Experiment in all cases: growth of human tumour cells (NCI), 48 h
# 786-0 = test system: 786-0
# A498 = test system: A498
# A549 = test system: A549
# ACHN = test system: ACHN
# CAKI-1 = test system: CAKI-1
# CCRF-CEM = test system: CCRF-CEM
# COLO 205 = test system: COLO 205
# DU-145 = test system: DU-145
# EKVX = test system: EKVX
# HCC 2998 = test system: HCC 2998
# HCT-116 = test system: HCT-116
# HCT-15 = test system: HCT-15
# HOP-62 = test system: HOP-62
# HOP-92 = test system: HOP-92
# HT-29 = test system: HT-29
# Hs-578T = test system: Hs-578T
# IGROV-1 = test system: IGROV-1
# K562 = test system: K562
# KM12 = test system: KM12
# LOX IMVI = test system: LOX IMVI
# M14 = test system: M14
# MCF7 = test system: MCF7
# MDA-MB-231 = test system: MDA-MB-231
# MDA-MB-435 = test system: MDA-MB-435
# MDA-N = test system: MDA-N
# MOLT-4 = test system: MOLT-4
# Malme-3M = test system: Malme-3M
# NCI-H226 = test system: NCI-H226
# NCI-H23 = test system: NCI-H23
# NCI-H460 = test system: NCI-H460
# NCI-H522 = test system: NCI-H522
# NCI/ADR-RES = test system: NCI/ADR-RES
# OVCAR-3 = test system: OVCAR-3
# OVCAR-4 = test system: OVCAR-4
# OVCAR-5 = test system: OVCAR-5
# OVCAR-8 = test system: OVCAR-8
# PC-3 = test system: PC-3
# RPMI-8226 = test system: RPMI-8226
# RXF 393 = test system: RXF 393
# SF-268 = test system: SF-268
# SF-295 = test system: SF-295
# SF-539 = test system: SF-539
# SK-MEL-28 = test system: SK-MEL-28
# SK-MEL-2 = test system: SK-MEL-2
# SK-MEL-5 = test system: SK-MEL-5
# SK-OV-3 = test system: SK-OV-3
# SN12C = test system: SN12C
# SNB-19 = test system: SNB-19
# SNB-75 = test system: SNB-75
# SW-620 = test system: SW-620
# T47D = test system: T47D
# TK-10 = test system: TK-10
# U-251 = test system: U-251
# UACC-257 = test system: UACC-257
# UO-31 = test system: UO-31
structure (smiles),measurement,setting,value
C#CCn1c(=O)c2cc(OC)c(OC)cc2n(CC#C)c1=O,GI50,786-0,> 10 µM (inactive)
same,GI50,A498,> 10 µM (inactive)
same,GI50,A549,> 10 µM (inactive)
same,GI50,ACHN,> 10 µM (inactive)
same,GI50,CAKI-1,> 10 µM (inactive)
same,GI50,CCRF-CEM,> 10 µM (inactive)
same,GI50,COLO 205,> 10 µM (inactive)
same,GI50,DU-145,> 10 µM (inactive)
same,GI50,EKVX,> 10 µM (inactive)
same,GI50,HCC 2998,> 10 µM (inactive)
same,GI50,HCT-116,> 10 µM (inactive)
same,GI50,HCT-15,> 10 µM
same,GI50,HOP-62,> 10 µM (inactive)
same,GI50,HOP-92,> 10 µM (inactive)
same,GI50,HT-29,> 10 µM (inactive)
same,GI50,Hs-578T,> 10 µM (inactive)
same,GI50,IGROV-1,> 10 µM (inactive)
same,GI50,K562,> 10 µM (inactive)
same,GI50,KM12,> 10 µM (inactive)
same,GI50,LOX IMVI,> 10 µM (inactive)
same,GI50,M14,> 10 µM (inactive)
same,GI50,MCF7,> 10 µM (inactive)
same,GI50,MDA-MB-231,> 10 µM (inactive)
same,GI50,MDA-MB-435,> 10 µM (inactive)
same,GI50,MDA-N,> 10 µM (inactive)
same,GI50,MOLT-4,> 10 µM (inactive)
same,GI50,Malme-3M,> 10 µM (inactive)
same,GI50,NCI-H226,> 10 µM (inactive)
same,GI50,NCI-H23,> 10 µM (inactive)
same,GI50,NCI-H460,> 10 µM (inactive)
same,GI50,NCI-H522,> 10 µM (inactive)
same,GI50,NCI/ADR-RES,> 10 µM (inactive)
same,GI50,OVCAR-3,> 10 µM (inactive)
same,GI50,OVCAR-4,> 10 µM (inactive)
same,GI50,OVCAR-5,> 10 µM (inactive)
same,GI50,OVCAR-8,> 10 µM (inactive)
same,GI50,PC-3,> 10 µM (inactive)
same,GI50,RPMI-8226,> 10 µM (inactive)
same,GI50,RXF 393,> 10 µM (inactive)
same,GI50,SF-268,> 10 µM (inactive)
same,GI50,SF-295,> 10 µM (inactive)
same,GI50,SF-539,> 10 µM (inactive)
same,GI50,SK-MEL-28,> 10 µM (inactive)
same,GI50,SK-MEL-2,> 10 µM (inactive)
same,GI50,SK-MEL-5,> 10 µM (inactive)
same,GI50,SK-OV-3,> 10 µM (inactive)
same,GI50,SN12C,> 10 µM (inactive)
same,GI50,SNB-19,> 10 µM (inactive)
same,GI50,SNB-75,> 10 µM (inactive)
same,GI50,SW-620,> 10 µM (inactive)
same,GI50,T47D,> 10 µM (inactive)
same,GI50,TK-10,> 10 µM (inactive)
same,GI50,U-251,> 10 µM (inactive)
same,GI50,UACC-257,> 10 µM (inactive)
same,GI50,UO-31,> 10 µM (inactive)
